Earlier results as cited in PMC3946937 (Pharmaceutical research, 2013).
Where two headings read alike, the source gives them in different places.

Legend:
Mtb [1] = test system: Mtb
Mtb [2] = test system: Mtb; remark: listed apart in the source
Mtb [3] = settings: read-out: Mtb Activity in vitro: IC90

## O=C(Nc1ccc(F)c(F)c1F)NC1C2CC3CC(C2)CC1C3 (stereo not shown) [AU1235]
Mtb [1]
  Mtb Activity in vitro: MIC: MIC 0.1μg/ml

## CCCCC1C(=O)N(c2ccccc2)N(c2ccc(O)cc2)C1=O (stereo not shown) [Oxyphenbutazone]
Mtb [2]
  Mtb Activity in vitro: MIC: MIC 10μg/ml
Mtb [2]; non-replicating TB
  Notes: activity in words: Active against non-replicating TB Metabolite active against replicating TB-screened ~5600 compounds

## CN1C(=O)[C@]23CC4=CC=C[C@H](O)[C@H]4N2C(=O)[C@@]1(CO)SS3 [Gliotoxin]
Mtb [3]
  IC90: 140 nM
